Results published in patent publication US20110301200A1, “THYROID RECEPTOR LIGANDS” (CADILA HEALTHCARE LIMITED, priority 2008, published 2011).

How the values were obtained:
TR-α = target: T1, TR-α (Homo sapiens, UniProt P10827); assay: In vitro TR-α activity (in-house protocol); assay type: cell-based; conditions: for fold induction at 0.001 µM: Conc. 1 nM; for fold induction at 0.001 µM / fold induction at 0.01 µM / fold induction at 0.1 µM / fold induction at 1 µM: read-out: TR-α Fold Induction w.r.t T3(100 nm); for fold induction at 0.01 µM: Conc. 10 nM; for fold induction at 0.1 µM: Conc. 100 nM; for fold induction at 1 µM: Conc. 1000 nM
T1 sequence (P10827 1-410 isoform P10827-2): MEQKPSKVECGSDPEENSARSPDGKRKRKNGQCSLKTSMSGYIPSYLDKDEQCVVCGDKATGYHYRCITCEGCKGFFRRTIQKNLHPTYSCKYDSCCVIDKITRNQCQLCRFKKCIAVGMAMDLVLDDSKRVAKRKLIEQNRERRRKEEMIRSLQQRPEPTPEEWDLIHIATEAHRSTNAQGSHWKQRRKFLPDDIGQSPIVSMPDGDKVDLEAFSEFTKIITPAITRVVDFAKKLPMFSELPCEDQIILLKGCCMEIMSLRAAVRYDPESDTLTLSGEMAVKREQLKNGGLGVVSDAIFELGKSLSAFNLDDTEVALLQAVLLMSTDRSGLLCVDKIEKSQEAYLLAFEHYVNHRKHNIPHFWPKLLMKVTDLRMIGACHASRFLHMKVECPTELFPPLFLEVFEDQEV
Experimental: (§1) In vitro TR-α & TR-β activities were determined as per in-house protocols and the results of representative compounds are provided in tables 1 & 2 below as a proof of the efficacies of the novel class of compounds disclosed above.

TR-β = target: T2, TR-β (Homo sapiens, UniProt P10828); assay: In vitro TR-β activity (in-house protocol); assay type: cell-based; conditions: for fold induction at 0.001 µM: Conc. 1 nM; for fold induction at 0.001 µM / fold induction at 0.01 µM / fold induction at 0.1 µM / fold induction at 1 µM: read-out: TR-β Fold Induction w.r.t T3(100 nm); for fold induction at 0.01 µM: Conc. 10 nM; for fold induction at 0.1 µM: Conc. 100 nM; for fold induction at 1 µM: Conc. 1000 nM
T2 sequence (P10828 1-461): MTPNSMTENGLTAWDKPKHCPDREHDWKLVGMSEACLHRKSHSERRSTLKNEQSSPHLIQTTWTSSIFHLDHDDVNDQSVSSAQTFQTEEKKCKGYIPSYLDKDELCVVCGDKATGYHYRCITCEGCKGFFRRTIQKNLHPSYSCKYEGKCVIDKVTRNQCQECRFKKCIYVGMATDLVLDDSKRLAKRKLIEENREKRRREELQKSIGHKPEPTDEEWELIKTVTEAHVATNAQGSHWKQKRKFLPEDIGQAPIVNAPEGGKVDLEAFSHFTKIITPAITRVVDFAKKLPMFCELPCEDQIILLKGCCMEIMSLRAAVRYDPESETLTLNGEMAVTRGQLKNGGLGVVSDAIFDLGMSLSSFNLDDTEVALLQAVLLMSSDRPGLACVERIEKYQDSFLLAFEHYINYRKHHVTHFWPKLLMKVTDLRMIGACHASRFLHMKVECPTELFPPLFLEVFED
Experimental: as §1

Row | Structure (SMILES) | fold induction at 0.001 µM (TR-α) | fold induction at 0.01 µM (TR-α) | fold induction at 0.1 µM (TR-α) | fold induction at 1 µM (TR-α) | fold induction at 0.001 µM (TR-β) | fold induction at 0.01 µM (TR-β) | fold induction at 0.1 µM (TR-β) | fold induction at 1 µM (TR-β) | EC50 (TR-α) [nM] | EC50 (TR-β) [nM]
1 | CC(C)c1cc(Oc2c(Cl)cc(C=NOCC(=O)O)cc2Cl)ccc1O [Example 1, 2-(((3,5-dichloro-4-(4-hydroxy-3-isopropylphenoxy)benzylidene)amino)oxy)acetic acid] | 11.8 | 25.7 | 73.5 | 99 | 7.72 | 20.6 | 52.6 | 53.4 |  | 
2 | CCC(C)c1cc(Oc2c(Cl)cc(C=NOCC(=O)O)cc2Cl)ccc1O (stereo not shown) [Example 2, 2-(((4-(3-(sec-butyl)-4-hydroxyphenoxy)-3,5-dichlorobenzylidene)amino)oxy)acetic acid] | 10.2 | 26.7 | 66.7 | 108 | 14 | 34.5 | 79.4 | 115 |  | 
3 | O=C(O)CON=Cc1cc(Cl)c(Oc2ccc(O)c(-c3ccccc3)c2)c(Cl)c1 [Example 4, 2-(((3,5-dichloro-4-((6-hydroxy-[1,1′-biphenyl]-3-yl)oxy)benzylidene)amino)oxy)acetic acid] | 11 | 9.45 | 14 | 35.5 | 11.4 | 10.5 | 19.3 | 64.4 |  | 
4 | O=C(O)CON=Cc1cc(Cl)c(Oc2ccc(O)c(Cc3ccccc3)c2)c(Cl)c1 [Example 5, 2-(((4-(3-benzyl-4-hydroxyphenoxy)-3,5-dichlorobenzylidene)amino)oxy)acetic acid] | 14.2 | 10.8 | 28.3 | 57 | 14.8 | 12 | 43.6 | 80.5 |  | 
5 | CCC(C)c1cc(Oc2c(Br)cc(C=NOCC(=O)O)cc2Br)ccc1O (stereo not shown) [Example 6, 2-(((3,5-dibromo-4-(3-(sec-butyl)-4-hydroxyphenoxy)benzylidene)amino)oxy)acetic acid] | 11.6 | 39.8 | 60.6 | 64.9 | 15.9 | 37.1 | 84 | 74.6 |  | 
6 | O=C(O)CON=Cc1cc(Br)c(Oc2ccc(O)c(-c3ccccc3)c2)c(Br)c1 [Example 7, 2-(((3,5-dibromo-4-((6-hydroxy-[1,1′-biphenyl]-3-yl)oxy)benzylidene)amino)oxy)acetic acid] |  |  |  |  |  |  |  |  | 5.2 | 2.9
7 | CC(ON=Cc1cc(Cl)c(Oc2ccc(O)c(C(C)C)c2)c(Cl)c1)C(=O)O (stereo not shown) [Example 8, 2-(((3,5-dichloro-4-(4-hydroxy-3-isopropylphenoxy)benzylidene)amino)oxy)propanoic acid] | 12.4 | 29.5 | 75 | 76.6 | 16.3 | 45.4 | 85.2 | 89 |  | 
8 | O=C(O)CON=Cc1cc(Br)c(Oc2ccc(O)c(Cc3ccccc3)c2)c(Br)c1 [Example 9, 2-(((4-(3-benzyl-4-hydroxyphenoxy)-3,5-dibromobenzylidene)amino)oxy)acetic acid] | 10.7 | 10.7 | 23.8 | 64.8 | 11.5 | 17.6 | 60.2 | 98.8 |  | 
9 | CC(ON=Cc1cc(Br)c(Oc2ccc(O)c(-c3ccccc3)c2)c(Br)c1)C(=O)O (stereo not shown) [Example 11, 2-(((3,5-dibromo-4-((6-hydroxy-[1,1′-biphenyl]-3-yl)oxy)benzylidene)amino)oxy)propanoic acid] | 16.2 | 32.8 | 70.2 | 49.4 | 16.1 | 39.3 | 73.8 | 65.3 |  | 
10 | CC(C)c1cc(Oc2c(Br)cc(C=NOC(C)(C)C(=O)O)cc2Br)ccc1O [Example 12, 2-(((3,5-dibromo-4-(4-hydroxy-3-isopropylphenoxy)benzylidene)amino)oxy)-2-methylpropanoic acid] | 24 | 59.9 | 88.7 | 110 | 39 | 65.4 | 119 | 67.4 |  | 
11 | CCC(ON=Cc1cc(Br)c(Oc2ccc(O)c(C(C)C)c2)c(Br)c1)C(=O)O (stereo not shown) [Example 13, 2-(((3,5-dibromo-4-(4-hydroxy-3-isopropylphenoxy)benzylidene)amino)oxy)butanoic acid] | 29.6 | 63.9 | 76.8 | 56.9 | 23.1 | 73.4 | 86.7 | 94.6 |  | 
12 | CCC(C)c1cc(Oc2c(Br)cc(C=NOC(C)(C)C(=O)O)cc2Br)ccc1O (stereo not shown) [Example 15, 2-(((3,5-dibromo-4-(3-(sec-butyl)-4-hydroxyphenoxy)benzylidene)amino)oxy)-2-methyl propanoic acid] | 35.7 | 77.7 | 119 | 123 | 23 | 84.3 | 118 | 72.3 |  | 
13 | CC(ON=Cc1cc(Br)c(Oc2ccc(O)c(Cc3ccccc3)c2)c(Br)c1)C(=O)O (stereo not shown) [Example 16, 2-(((4-(3-benzyl-4-hydroxyphenoxy)-3,5-dibromobenzylidene)amino)oxy)propanoic acid] | 19.1 | 29.4 | 119 | 161 | 12 | 31.7 | 54.3 | 70.5 |  | 
14 | CCC(ON=Cc1cc(Br)c(Oc2ccc(O)c(Cc3ccccc3)c2)c(Br)c1)C(=O)O (stereo not shown) [Example 17, 2-(((4-(3-benzyl-4-hydroxyphenoxy)-3,5-dibromobenzylidene)amino)oxy)butanoic acid] | 21.6 | 38.5 | 66.2 | 109 | 21.2 | 31.3 | 81.5 | 85.6 |  | 
15 | CCC(C)c1cc(Oc2c(Br)cc(C=NOC(C(=O)O)c3ccccc3)cc2Br)ccc1O (stereo not shown) [Example 18, 2-(((3,5-dibromo-4-(3-(sec-butyl)-4-hydroxyphenoxy)benzylidene)amino)oxy)-2-phenylacetic acid] | 15.5 | 36 | 77 | 90.4 | 13.8 | 20.8 | 69.5 | 122 |  | 
16 | CCC(ON=Cc1cc(Br)c(Oc2ccc(O)c(C(C)CC)c2)c(Br)c1)C(=O)O (stereo not shown) [Example 19, 2-(((3,5-dibromo-4-(3-(sec-butyl)-4-hydroxyphenoxy)benzylidene)amino)oxy)butanoic acid] | 34.4 | 80.8 | 64.2 | 109 | 20.2 | 69.7 | 86.2 | 90.8 |  | 
17 | CC(C)(ON=Cc1cc(Br)c(Oc2ccc(O)c(-c3ccccc3)c2)c(Br)c1)C(=O)O [Example 20, 2-(((3,5-dibromo-4-((6-hydroxy-[1,1′-biphenyl]-3-yl)oxy)benzylidene)amino)oxy)-2-methyl propanoic acid] | 9.45 | 13.1 | 34.5 | 74.3 | 8.98 | 14.8 | 46 | 98.6 |  | 
